Counter-ions that a name gives are not always drawn.
Assay: Stability study (storage at 60° C. and 60° C. 75% RH, measured by HPLC)
Format: physicochemical
Parameters: Stability Study Results (HPLC): unit not given here
Conditions: for stability: stored at 60° C. and 60° C. 75% RH for 1 month, measured at 20 days and 1 month by HPLC
Procedure: Each sample was stored at 60° C. and 60° C. 75% RH for 1 month. Each sample was measured at 20 days and 1 month by HPLC. HPLC conditions are described below.
Column: Waters XSelect CSH C18, 4.6×150 mm, 3.5 μm
MPA: 50 mM HClO4 in water (pH=3)
MPB: MeOH/acetonitrile (9:1)

| Compound | Stability Study Results (HPLC) (1 month at 60° C.) | Stability Study Results (HPLC) (1 month at 60° C. 75% RH) | Stability Study Results (HPLC) (20 day at 60° C.) | Stability Study Results (HPLC) (20 days at 60° C. 75% RH) | Stability Study Results (HPLC) (Initial) | stability | stability (phosphate) |
| --- | --- | --- | --- | --- | --- | --- | --- |
| O=C(O)CC(O)(CC(=O)O)C(=O)O [Citric acid] | 99.16 | 97.73 | 99.10 | 98.34 | 99.08 | – | – |
| O=P(O)(O)O [Compound H3PO4] | 99.23 | 99.24 | 99.20 | 99.20 | 99.20 | – | – |
| CNC[C@@H]1OCCc2cccc(F)c21.O=C(O)/C=C/C(=O)O [Fumarate, (R)-1-(8-fluoroisochroman-1-yl)-N-methylmethanamine fumarate] | – | – | – | – | – | stable | – |
| O=C(O)/C=C/C(=O)O [Fumaric acid] | 99.60 | 99.64 | 99.54 | 99.67 | 99.48 | – | – |
| Cl [HCl] | 98.89 | 99.05 | 98.50 | 99.07 | 98.94 | – | – |
| CNC[C@@H]1OCCc2cccc(F)c21.Cl [Hydrochloride, (R)-1-(8-fluoroisochroman-1-yl)-N-methylmethanamine hydrochloride] | – | – | – | – | – | stable | – |
| CNC[C@@H]1OCCc2cccc(F)c21.O=C(O)C(O)C(O)C(=O)O [L-tartrate, (R)-1-(8-fluoroisochroman-1-yl)-N-methylmethanamine L-tartrate] | – | – | – | – | – | stable | – |
| CNC[C@@H]1OCCc2cccc(F)c21 [Phosphate, (R)-1-(8-fluoroisochroman-1-yl)-N-methylmethanamine phosphate] | – | – | – | – | – | – | stable |
| CNC[C@@H]1OCCc2cccc(F)c21.O=C(O)CC(O)(CC(=O)O)C(=O)O [citrate, (R)-1-(8-fluoroisochroman-1-yl)-N-methylmethanamine citrate] | – | – | – | – | – | stable | – |
| CNC[C@@H]1OCCc2cccc(F)c21 [freebase (amorphous) of Compound 1, (R)-1-(8-fluoroisochroman-1-yl)-N-methylmethanamine] | – | – | – | – | – | unstable | – |
| L-Tartaric | 99.14 | 99.23 | 99.13 | 99.23 | 99.10 | – | – |

Source: patent publication US11136304B2, “Salts of a heterocyclic compound and crystalline forms, processes for preparing, therapeutic uses, and pharmaceutical compositions thereof” (Sunovion Pharmaceuticals Inc., priority 2019, dated 2021)
